The values below come from ChEMBL document CHEMBL3507680, “University of Dundee, Gates Library screen for HepG2 cell viability”.

Structures are written as SMILES.

The nature of the data set: Human HepG2 cell viability assay in 384 well format. Type of data set: toxicity, cell-based. Details: dose 125 nL, time 70.5 hour; concentration not given beside the values. Conditions: HepG2 cells, read-out: Inhibition.
Turning to `O=C(NCc1ccco1)[C@@]12CCO[C@@H]1CCN(CCN1CCCC1)C2`, the cytotoxicity at 70.5 h came to 8.62%.

As for `Cc1cnc(N2CC3(CCN(C(=O)c4ccoc4)C3)C2)nc1`, the cytotoxicity at 70.5 h is -2.31%.

Consider `Cc1cccc(CN2C[C@@H]3CN(C(=O)NC(C)C)C[C@@H]3C2=O)c1`, for which the cytotoxicity at 70.5 h was -11.4%.

Take `Cc1cc(C(=O)N2C[C@@H]3[C@@H](C2)OCC(=O)N3CC2CC2)no1`: the cytotoxicity at 70.5 h was -13.6%.

For `O=C(c1cccs1)N1C[C@H]2CC[C@@]3(N=C(c4ccccc4)NC3=O)[C@H]2C1`, the cytotoxicity at 70.5 h is -4.38%.

`CN(C)[C@@H]1CCN(c2ncccn2)[C@H]1Cc1ccccc1`: the cytotoxicity at 70.5 h was -6.06%.

As to `CC(=O)N1[C@H](Cn2cncn2)C[C@@H]2CN(c3ccc(C)nn3)CC[C@@H]21`, the cytotoxicity at 70.5 h is -6.42%.

On to `COCC1CN(C(=O)c2cccn2C)Cc2ncnn2C1` (configuration not stated), for which the cytotoxicity at 70.5 h is -3.03%.

On to `Cc1ccc(CN2CC[C@H]3C[C@@H](c4nc(C5CC5)cs4)O[C@@H]3C2)o1`, for which the cytotoxicity at 70.5 h is -7.46%.

As to `Cc1ccc(N2CC3(CCN(C(=O)c4ccoc4)C3)C2)nn1`, the cytotoxicity at 70.5 h was -12.3%.

For `Cc1nc([C@@H]2C[C@@H]3CCN(C(=O)c4occc4C)C[C@H]3O2)no1`, the cytotoxicity at 70.5 h came to 23.8%.

Consider `CCc1ncnc2c1CCN(C(=O)N1CCCC1)CC2`, for which the cytotoxicity at 70.5 h amounted to 20.9%.

With `CC(C)NC(=O)N1CCC2(CC(C(=O)NCc3cccnc3)=NO2)C1` (configuration not stated), the cytotoxicity at 70.5 h is -11.9%.

For `COCCO[C@@H]1C[C@H]2CN(C(=O)c3ccc(C)nc3)CCN2C1`, the cytotoxicity at 70.5 h was -9.86%.

Regarding `O=C(NCC1CC1)C1=NOC2(CCN(Cc3ccc4c(c3)OCO4)C2)C1` (configuration not stated), the cytotoxicity at 70.5 h is -5.94%.

`COCCO[C@@H]1C[C@H]2CN(C(=O)c3cnccn3)CCN2C1`: the cytotoxicity at 70.5 h was -6.2%.

In the case of `CN1C(=O)C(c2cccnc2)CC12CCN(C(=O)c1cccn1C)CC2` (configuration not stated), the cytotoxicity at 70.5 h is -10.3%.

As for `Cc1cc(C(=O)N2C[C@@H]3COC[C@]3(c3nnc(C4CC4)o3)C2)on1`, the cytotoxicity at 70.5 h was -19%.

As to `O=C(NCC1CC1)C1CN(C(=O)c2cccs2)CC12CCOCC2` (configuration not stated), the cytotoxicity at 70.5 h was -13.2%.

On to `c1cnc(NCc2noc3c2CN(C2CCOCC2)CC3)nc1`, for which the cytotoxicity at 70.5 h is -10.6%.

Regarding `CN(C)S(=O)(=O)N1CCC2(COCc3cnc(-c4ccccc4)nc32)C1` (configuration not stated), the cytotoxicity at 70.5 h was -23.1%.

As to `COc1cccc(C(=O)N2CCc3ncnc(C)c3CC2)c1`, the cytotoxicity at 70.5 h was -5.4%.

Regarding `Cn1cc(CN2CC3(CCN(C(=O)c4ccoc4)C3)C2)cn1`, the cytotoxicity at 70.5 h is -6.02%.

As to `Cc1ccc(N2CC3(CCN(c4nccs4)C3)C2)nn1`, the cytotoxicity at 70.5 h was -4.92%.

Consider `Cc1nn(C)cc1-c1cc(C(=O)N2CCc3ncc(Cl)cc3C2)no1`, for which the cytotoxicity at 70.5 h came to 0.792%.

As to `Cc1nn(C)cc1-c1cc(C(=O)N2CCc3ncc(Cl)cc3C2)on1`, the cytotoxicity at 70.5 h is -2.35%.

For the compound `Cc1c(-c2cc(C(=O)N3CCc4ncc(Cl)cc4C3)on2)cnn1C`, the cytotoxicity at 70.5 h is 35%.

For `Cn1nccc1C(=O)N1CCC(c2ncc(Cl)cc2S(C)(=O)=O)CC1`, the cytotoxicity at 70.5 h turned out to be 18.3%.

Consider `COCCC(=O)N1CCC2(CC1)CN(C(C)=O)Cc1ccccc1O2`, for which the cytotoxicity at 70.5 h stood at 0.622%.

Take `COCCC(=O)N1Cc2ccccc2OC2(CCOCC2)C1`: the cytotoxicity at 70.5 h is -0.482%.

Regarding `Cc1ncc(-c2ccncc2)c(C2CCN(C(=O)c3ccco3)CC2)n1`, the cytotoxicity at 70.5 h is -2.42%.

For the compound `Nc1ncc(CN2CCC(O)(c3ccccc3F)CC2)cn1`, the cytotoxicity at 70.5 h is -2.71%.

On to `COCC(=O)N1CCC2(CC1)CN(S(C)(=O)=O)Cc1ccccc1O2`, for which the cytotoxicity at 70.5 h is -0.505%.

As for `Cc1cc(C(F)(F)F)n2nc(C3CCN(S(C)(=O)=O)CC3)cc2n1`, the cytotoxicity at 70.5 h was -7.35%.

`Cc1cc(C(F)(F)F)n2nc(C3CCN(S(=O)(=O)N(C)C)CC3)cc2n1`: the cytotoxicity at 70.5 h was -0.288%.

Turning to `Cn1ncc2c1CCCN(C(=O)C1CC1)C2`, the cytotoxicity at 70.5 h is 14.3%.

As to `Cc1nn(C)cc1CN1CCCC(n2c(=O)oc3ccc(Cl)cc32)C1` (configuration not stated), the cytotoxicity at 70.5 h was 46.8%.

In the case of `CCCNS(=O)(=O)c1cc2c3c(c1)c(C)cc(=O)n3CCC2`, the cytotoxicity at 70.5 h is -0.859%.

As for `CCCc1cc(C(=O)NC(C)c2ccccc2)n(C)n1` (configuration not stated), the cytotoxicity at 70.5 h was -2.33%.

For `Cc1ccnn1CCNC(=O)c1cnc(N(C)C)nc1`, the cytotoxicity at 70.5 h was -4.92%.

As to `Cc1nc2c(c(NCCCN3CCOCC3)n1)CCN(C)C2`, the cytotoxicity at 70.5 h was found to be 15.4%.

Turning to `Cc1nc2c(c(NCCN3CCOCC3)n1)CCN(C)C2`, the cytotoxicity at 70.5 h is 32.4%.

As to `CNc1cc(C)nc(C2COCCN2CCOc2ccc(F)cc2)n1` (configuration not stated), the cytotoxicity at 70.5 h is -3.24%.

As for `CNc1cc(C)nc(C2COCCN2CCc2ccccc2)n1` (configuration not stated), the cytotoxicity at 70.5 h is -1.48%.

For the compound `CCCn1nc(C)c(C(=O)N(C)[C@@H]2CC[C@@H](OC)[C@@H]2O)c1C`, the cytotoxicity at 70.5 h was -3.89%.

Turning to `CC(C)(C)c1ccc(CN2C[C@H]3C[C@H](O)C[C@H]3C2)c(OCC(N)=O)c1`, the cytotoxicity at 70.5 h was -2.7%.

In the case of `Cn1cnc2c(N3CCCC3)nc(C3CCNCC3)cc21`, the cytotoxicity at 70.5 h is -17%.

For `Cc1ccc(C(=O)N2CCC3(CC2)CC(c2ccccc2)C(=O)N3)cn1` (configuration not stated), the cytotoxicity at 70.5 h was found to be 0.473%.

Consider `Cc1occc1C(=O)N1CCC2(CCN(Cc3nccs3)C2)CC1`, for which the cytotoxicity at 70.5 h was -11%.

For `CS(=O)(=O)N1CC[C@H]2O[C@H](C(=O)NCCc3ccncc3)CC[C@H]21`, the cytotoxicity at 70.5 h came out at 14.6%.

For the compound `O=C(NC1CC1)N1CCc2ncnc(-c3ccncc3)c2CC1`, the cytotoxicity at 70.5 h is 18.5%.

On to `Cn1cc(CN2CC[C@H]3O[C@H](C(=O)NCc4ccco4)CC[C@H]32)cn1`, for which the cytotoxicity at 70.5 h is -12.4%.

Take `Cc1ccc(CN2CC(C(=O)N3CCCC3)C3(CCOCC3)C2)s1` (configuration not stated): the cytotoxicity at 70.5 h was -9.91%.

As to `O=C(Nc1ccccc1)C1CN(CC2CC2)CC12CCOCC2` (configuration not stated), the cytotoxicity at 70.5 h was -17.6%.

For the compound `O=C(c1cnccn1)N1CCc2ncnc(-c3cccnc3)c2CC1`, the cytotoxicity at 70.5 h is -16.1%.

Take `COCC(=O)N1CCCn2c(CN3CCCCC3)nnc2C1`: the cytotoxicity at 70.5 h is -7.69%.

`CCOCC1CN(Cc2cccc(C#N)c2)Cc2nccn2C1` (configuration not stated): the cytotoxicity at 70.5 h is -1.89%.

For `CS(=O)(=O)NCc1cnc2n1CCN(Cc1ccsc1)CC2`, the cytotoxicity at 70.5 h turned out to be 8.08%.

As for `CC(C)COCc1cncc2c1CCN(Cc1cnn(C)c1)C2`, the cytotoxicity at 70.5 h was -13.8%.

With `c1cncc(COCc2nnc3n2CCN(Cc2ccoc2)C3)c1`, the cytotoxicity at 70.5 h is -9.66%.

In the case of `CN(Cc1ccco1)C[C@H]1OC[C@@H]2CCN(Cc3cccs3)C[C@@H]21`, the cytotoxicity at 70.5 h is -13.4%.

For `O=C(c1cccnc1)N1CC[C@H](OCC2CC2)[C@@H]1Cc1cccnc1`, the cytotoxicity at 70.5 h was -5.08%.

As to `CC(C)Nc1nc2c(cc1C(=O)N(C)C)CCNCC2`, the cytotoxicity at 70.5 h is -6.7%.

`CC(C)N(C)Cc1cn2c(n1)CN(Cc1ccsc1)CC2`: the cytotoxicity at 70.5 h amounted to 10.4%.

As to `CN(Cc1ccco1)C[C@H]1OC[C@@H]2CCN(Cc3cccnc3)C[C@@H]21`, the cytotoxicity at 70.5 h is -7.43%.

As for `CCc1cc(C(F)(F)F)n2nc(C3CCCN3C3CCSCC3)cc2n1` (configuration not stated), the cytotoxicity at 70.5 h was -2.16%.

Take `CCN(CC)CCCNc1nc(C)nc2c1CCN(C)C2`: the cytotoxicity at 70.5 h was -1.66%.
